Assay results as given in the NIST ThermoML archive (doi:10.1021/acs.jced.7b00674).
± gives the expanded uncertainty stated by the source.

Assays:
[1] = refractive index (Na D-line) (dimensionless); conditions: 298.15 K; 101.33 kPa; Liquid; Standard Abbe refractometry
[2] = 298.15 K; 101.33 kPa; Liquid; Vibrating tube method

SMILES | refractive index [1] | mass density [2]
Cc1ccc(C)cc1 [1,4-dimethylbenzene] | 1.4931 ± 0.012 | 856.5 ± 16 kg/m3
CC(=O)C=C(C)C [4-methyl-3-penten-2-one] | 1.4416 ± 0.012 | 857.6 ± 16 kg/m3
OC1CCCCC1 [cyclohexanol] | 1.4621 ± 0.012 | 961.5 ± 16 kg/m3
Cc1ccccc1 [toluene] | 1.4938 ± 0.012 | 862.1 ± 16 kg/m3
O [water] | 1.3324 ± 0.012 | 
